Measured values as given in ChEMBL document CHEMBL5223166, “Thienopyrimidine Derivatives as GPR55 Receptor Antagonists: Insight into Structure-Activity Relationship” (ACS Med Chem Lett, 2023).
The source made the active and inactive calls. No cut-off for these calls is given here.

Experiments:
[1] = target: T1, G-protein coupled receptor 55 (Homo sapiens, UniProt Q9Y2T6); test: Antagonist activity at beta-galactosidase fused human GPR55 expressed in CHO cells assessed as inhibition of LPI-induced receptor activation by measuring beta-arrestin 2 recruitment at upto 10 uM incubated for 90 mins by PathHunter chemiluminescence based assay; assay type: cell-based
T1 sequence (Q9Y2T6 whole entry, the tested form may be a part): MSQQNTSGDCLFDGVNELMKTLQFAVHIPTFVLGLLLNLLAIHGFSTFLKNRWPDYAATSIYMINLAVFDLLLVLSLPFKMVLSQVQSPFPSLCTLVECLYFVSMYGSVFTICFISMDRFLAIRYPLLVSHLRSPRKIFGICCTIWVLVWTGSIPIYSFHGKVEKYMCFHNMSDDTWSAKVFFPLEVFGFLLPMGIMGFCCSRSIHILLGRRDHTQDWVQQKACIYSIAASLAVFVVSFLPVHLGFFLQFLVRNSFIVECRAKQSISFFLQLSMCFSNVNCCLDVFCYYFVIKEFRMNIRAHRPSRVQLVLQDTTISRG

Cannabinoid receptor 1 = Cannabinoid receptor 1 (Homo sapiens, UniProt P21554); test: Displacement of [3H]CP55940 from human CB1 receptor expressed in HEK293 cell membranes assessed as inhibition constant incubated for 90 mins by liquid scintillation spectrometry analysis; design: species or system Membrane
Cannabinoid receptor 1, sequence (P21554 whole entry): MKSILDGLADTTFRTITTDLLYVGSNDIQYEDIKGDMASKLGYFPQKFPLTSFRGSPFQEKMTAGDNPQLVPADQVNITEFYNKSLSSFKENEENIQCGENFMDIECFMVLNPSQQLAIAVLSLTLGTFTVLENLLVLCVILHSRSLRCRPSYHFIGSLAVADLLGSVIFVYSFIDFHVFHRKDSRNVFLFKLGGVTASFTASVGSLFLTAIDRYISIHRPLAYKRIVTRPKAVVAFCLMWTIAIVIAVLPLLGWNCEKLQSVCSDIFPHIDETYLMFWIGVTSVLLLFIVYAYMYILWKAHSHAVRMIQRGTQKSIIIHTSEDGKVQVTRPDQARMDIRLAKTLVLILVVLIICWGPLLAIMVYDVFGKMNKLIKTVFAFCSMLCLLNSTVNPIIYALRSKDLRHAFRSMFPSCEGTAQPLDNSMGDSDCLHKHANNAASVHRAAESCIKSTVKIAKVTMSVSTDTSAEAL

Cannabinoid receptor 2 = Cannabinoid receptor 2 (Homo sapiens, UniProt P34972); test: Displacement of [3H]CP55940 from human CB2 receptor expressed in HEK293 cell membranes assessed as inhibition constant incubated for 90 mins by liquid scintillation spectrometry analysis; design: species or system Membrane
Cannabinoid receptor 2, sequence (P34972 whole entry, the tested form may be a part): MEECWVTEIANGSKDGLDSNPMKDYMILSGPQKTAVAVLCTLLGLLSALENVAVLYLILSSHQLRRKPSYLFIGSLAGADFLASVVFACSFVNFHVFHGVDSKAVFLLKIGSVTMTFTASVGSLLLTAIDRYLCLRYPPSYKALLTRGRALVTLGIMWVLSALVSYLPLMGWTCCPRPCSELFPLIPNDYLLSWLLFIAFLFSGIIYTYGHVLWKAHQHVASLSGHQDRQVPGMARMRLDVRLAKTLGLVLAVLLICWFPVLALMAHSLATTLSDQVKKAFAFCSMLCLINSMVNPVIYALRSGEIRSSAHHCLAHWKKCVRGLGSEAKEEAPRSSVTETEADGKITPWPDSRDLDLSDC

[2] = target: T1, G-protein coupled receptor 55; test: Antagonist activity at beta-galactosidase fused human GPR55 expressed in CHO cells assessed as inhibition of LPI-induced receptor activation by measuring beta-arrestin 2 recruitment incubated for 90 mins by PathHunter chemiluminescence based assay; assay type: cell-based
[3] = target: T1, G-protein coupled receptor 55; test: Antagonist activity at human GPR55 expressed in HEK293 cells coexpressing serum response element assessed as inhibition of LPI-induced MAPK/ERK signalling pathway by measuring SRE response incubated for 5 hrs in serum-free medium by luciferin based bioluminescence analysis; assay type: cell-based
[4] = target: T1, G-protein coupled receptor 55; test: Antagonist activity at human GPR55 expressed in human U2OS cells assessed as inhibition of LPI-induced receptor activation by measuring beta-arrestin 2 recruitment preincubated for 30 mins followed by LPI addition and measured after 75 mins by microplate reader analysis; assay type: cell-based
[5] = target: T1, G-protein coupled receptor 55; test: Inverse agonist activity at human GPR55 expressed in HEK293 cells coexpressing serum response element assessed as reduction in MAPK/ERK signalling pathway by measuring SRE response incubated for 5 hrs in serum-free medium by luciferin based bioluminescence analysis; assay type: cell-based
CHO = test: Cytotoxicity against CHO cells assessed as reduction in cell viability at upto 10 uM incubated for 24 hrs by XTT assay; assay type: toxicity, cell-based, Cricetulus griseus; details: chinese hamster

| inhibition [1] | SMILES | Ki (Cannabinoid receptor 1) [µM] | Ki (Cannabinoid receptor 2) [µM] | other results |
| --- | --- | --- | --- | --- |
| – | O=C(c1ccco1)N1CCN(c2nc(CCl)nc3sc4c(c23)CCCC4)CC1 | > 4 | > 4 | – |
| inactive | O=C(c1ccco1)N1CCN(c2c[nH]c(=O)cn2)CC1 | – | – | – |
| – | Cc1nc(Nc2ccc(S(=O)(=O)Nc3onc(C)c3C)cc2)c2c3c(sc2n1)CC(C)(C)CC3 | – | – | IC50 [2]: 3.35 µM |
| – | Cc1nc(O)c(C)c(Cl)n1 | > 4 | > 4 | – |
| – | Cc1ccc2c(c1)sc1nc(C)nc(N3CCN(C(=O)c4ccco4)CC3)c12 | > 4 | > 4 | – |
| – | Cc1nc(N2CCN(C(=O)c3ccco3)CC2)c2c3c(sc2n1)CCCC3 | – | – | IC50 [2]: 2.02 µM; IC50 [3]: 7.5 µM |
| – | Cc1nc(N2CCN(C(=O)c3ccco3)CC2)c2c(n1)sc1ccccc12 | > 4 | > 4 | – |
| inactive | O=C(c1ccco1)N1CCN(c2ncnc3sc(-c4ccccc4)cc23)CC1 | – | – | – |
| – | Cc1c(Cl)nc(C)n(C)c1=O | > 4 | > 4 | – |
| inactive | Cc1c(N2CCN(C(=O)c3ccco3)CC2)nc(C)n(C)c1=O | – | – | – |
| – | Cc1nc(N2CCCN(C(=O)c3ccco3)CC2)c2c3c(sc2n1)CCCC3 | > 4 | > 4 | – |
| – | O=C(c1ccco1)N1CCN(c2nc(C3CC3)nc3sc4c(c23)CCCC4)CC1 | – | – | IC50 [4]: 0.86 µM |
| – | Cc1nc(N2CCCN(C(=O)c3ccco3)CC2)c2c3c(sc2n1)CC(C)(C)CC3 | > 4 | > 4 | – |
| inactive | Cc1cc(C)c2nc(-c3ccccn3)cc(C(=O)N3CCN(C(=O)c4ccco4)CC3)c2c1 | – | – | – |
| inactive | Cc1nc(O)c(C)c(N2CCN(C(=O)c3ccco3)CC2)n1 | – | – | – |
| – | O=C(c1ccco1)N1CCN(c2ncnc3sc4c(c23)CCCC4)CC1 | > 4 | > 4 | IC50 [2]: 0.68 µM |
| – | CC1(C)CCc2c(sc3nc(CCO)nc(N4CCN(C(=O)c5ccco5)CC4)c23)C1 | – | – | IC50 [2]: 11.7 µM |
| – | Cc1nc(N2CCN(C(=O)c3ccco3)CC2)c2c3c(sc2n1)CC(C)CC3 (stereo not drawn) | – | – | IC50 [4]: 0.43 µM |
| – | Cc1nc(N2CCN(C(=O)c3ccco3)CC2)c2c3c(sc2n1)CC(C)(C)CC3 | > 4 | > 4 | IC50 [2]: 0.28 µM; EC50 [5]: 0.9 µM; IC50 [3]: 1.5 µM; Activity (CHO): Non-Toxic |
| – | Cc1cc(C)c2nc(-c3ccccn3)cc(C(=O)O)c2c1 | > 4 | > 4 | – |
| – | O=c1cnc(Cl)c[nH]1 | > 4 | > 4 | – |
| inactive | O=C(c1ccco1)N1CCN(c2ncnn3cccc23)CC1 | – | – | – |
| inactive | CC1(C)CCc2c(sc3nc(CN4CCOCC4)nc(N4CCN(C(=O)c5ccco5)CC4)c23)C1 | – | – | – |
| – | CC1(C)CCc2c(sc3nc(CO)nc(N4CCN(C(=O)c5ccco5)CC4)c23)C1 | > 4 | > 4 | – |
| – | Cc1nc(Nc2ccc(S(=O)(=O)Nc3onc(C)c3C)cc2)c2c3c(sc2n1)CCCC3 | – | – | IC50 [2]: 29.3 µM |
| inactive | Cn1ncc2ncnc(N3CCN(C(=O)c4ccco4)CC3)c21 | – | – | – |

| SMILES | inhibition [1] | Ki (Cannabinoid receptor 1) [µM] | Ki (Cannabinoid receptor 2) [µM] | other results |
| --- | --- | --- | --- | --- |
| COCc1nc(N2CCN(C(=O)c3ccco3)CC2)c2c3c(sc2n1)CC(C)(C)CC3 | inactive | > 4 | > 4 | – |
| COCCc1nc(N2CCN(C(=O)c3ccco3)CC2)c2c3c(sc2n1)CC(C)(C)CC3 | inactive | > 4 | > 4 | – |
| CC1(C)CCc2c(sc3nc(CCN4CCOCC4)nc(N4CCN(C(=O)c5ccco5)CC4)c23)C1 | inactive | > 4 | > 4 | – |
